Experimental data as given in patent publication US20260335323A1, “CHIMERIC MOLECULE” (UCL Business Ltd, priority 2023, published 2026).

Assays:
BRD4 = biological target: T1, BRD4 (Homo sapiens, UniProt O60885); test: Western blot, BRD4 levels in CAL51 cells; assay type: cell-based; settings: 100 nM, 72 hours
T1 construct: Western blot (antibody CST #13440)
Experimental: (§1) All treatments with (+)-JQ1, NZ-147 or NZ-175 were performed at 100 nM concentration over 72 hours.
(§2) Cells were homogenised in protein lysis buffer consisting of 0.1 M Tris pH 8.0, 0.1 M NaCl, 5% glycerol, IGEPAL® CA-630 (#18896. Sigma-Aldrich) and 5 mM EDTA, 0.1 M N-ethyl maleimide (ThermoFisher, #23030) and protease inhibitor (Cell Signalling Technologies, #5871). Protein concentrations were determined using the BCA assay to ensure equal loading. […] The membranes were immunoblotted with primary antibodies, overnight at 4° C. […]
(§3) Membranes were then incubated with horseradish peroxidase (HRP)-conjugated secondary antibodies (Rabbit #7074 and Mouse #7076) purchased from Cell Signalling Technologies for 1 hour and the HRP signal was detected using EZ-ECL Enhanced Chemiluminescence Detection Kit for HRP (#20-500-500, Sartorius), and imaged with an Alliance Q9 Advanced (UVITec). […]
(§4) We generated a BRD4-ULKTAC (NZ-147) by conjugating (+)-JQ1 (BRD4-targeting moiety) to NZ-60 via a PEG linker (FIG. 8A). CAL51 cells (a triple negative breast cancer cell line) were treated with DMSO, (+)-JQ1 or NZ-147 at 100 nM for 72 hours then lysed and analysed by Western blot (FIG. 8B). […]

MAX = test: Western blot, MAX levels in CAL51 cells; assay type: cell-based, human; settings: 100 nM, 72 hours
Experimental: as §1, §2, §3, §4

c-MYC = c-MYC immunofluorescence in hTERT-cMYC-ER expressing RPE1 cells; assay type: cell-based, human; settings: 100 nM, 72 hours, with 4-OHT
Experimental: FIG. 9. (A) Schematic representation of hTERT-cMYC-ER expressing RPE1 cells. Treatment with 4-hydroxytamoxifen (4-OHT) translocates c-MYC-ER from the cytoplasm into the nucleus, simulating oncogenic c-MYC. (B) Immunofluorescence images of hTERT-cMYC-ER expressing RPE1 cells treated with DMSO, (+)-JQ1 or NZ-147 at 100 nM for 72 hours, each with or without 4-OHT.
RPE1-hTERT-c-MYC-ER cells were seeded in a 384 well PerkinElmer CellCarrier Ultra plate. In Example 8, cells were treated for 72 hours with DMSO, (+)-JQ1±4-OHT, or, NZ-147±4-OHT. In Example 9, cells were treated for 72 hours with 4-OHT, NZ-175, both, or neither. Thereafter, in both Examples 8 and 9, cells were fixed with 4% paraformaldehyde (PFA) in phosphate buffered saline (PBS) and blocked with 10% FBS and 0.1% Triton in PBS. Plates were incubated at 4° C. overnight, with 1:500 rabbit anti-c-MYC (D84C12) rabbit monoclonal antibody (#5605, Cell Signalling Technologies). The following day, plates were incubated with 1:1000 goat anti-rabbit Alexa 488 (ThermoFisher Scientific, #A-11008) and 1.62 μM Hoechst 33342 at room temperature for 1 hour before imaging. Excitation and emission spectra for each channel are as follows: Hoechst 33342=405/435-480 nm, Alexa 488=488/500-550 nm. Images were acquired at 40× and 63× magnification with water immersion lens.

A549 cells = test: Colony formation assay, A549; assay type: cell-based, human; settings: A549, 100 nM, 72 hours
Experimental: A549 and H1299 cells were seeded in 12 well plates at approximately 100 cells per well. In Example 8, wells were treated with DMSO, (+)-JQ1 or NZ-147. In Example 9, cells were treated with DMSO or NZ-175. Colonies were allowed to form over 120 h. Cells were fixed and stained with crystal violet staining solution, prepared in 70% ethanol.
A colony formation assay was performed in A549 and H1299 cells, which were treated with DMSO, (+)-JQ1 or NZ-147 at 100 nM for 72 hours and stained with crystal violet (FIG. 10A).
A colony formation assay was performed in A549 and H1299 cells, which were treated with DMSO or NZ-175 at 100 nM for 72 hours and stained with crystal violet (FIG. 16A).

H1299 cells = test: Cell viability assay (CellTiter Glo), H1299; assay type: cell-based, human; settings: H1299, increasing concentrations
Experimental: A549 and H1299 cells were seeded in OptiPlate-384 well plates and treated with increasing concentrations of (+)-JQ1 or NZ-147 from 0 μM to 10 µM in Example 8 and with increasing concentrations of NZ-175 from 0 µM to 10 µM in Example 9. Cells were treated for 120 h before using the luciferase based CellTiter Glo assay (Promega) to measure cell viability.
Cell viability assay was performed in A549 and H1299 cells, which were treated with different concentrations of (+)-JQ1 or NZ-147 at 100 nM for 72 hours (FIG. 10B).
Cell viability assay was performed in A549 and H1299 cells, which were treated with different concentrations of NZ-147 at 100 nM for 72 hours (FIG. 16B).

Cc1sc2c(c1C)C(c1ccc(Cl)cc1)=N[C@@H](CC(=O)NCCOCCOCCOCCn1cc(COc3ccc([C@@H](NC(=O)Nc4cc(C(F)(F)F)cc(C(F)(F)F)c4)C(=O)Nc4ccc(F)cc4F)cc3)nn1)c1nnc(C)n1-2 [NZ-147, (R)-2-(3-(3,5-bis(trifluoromethyl)phenyl)ureido)-2-(4-((1-(1-((S)-4-(4-chlorophenyl)-2,3,9-trimethyl-6H-thieno[3,2-f][1,2,4]triazolo[4,3-a][1,4]diazepin-6-yl)-2-oxo-6,9, 12-trioxa-3-azatetradecan-14-yl)-1H-1,2,3-triazol-4-yl)methoxy)phenyl)-N-(2,4-difluorophenyl) acetamide]
levels of BRD4 (BRD4): reduced
levels of MAX (MAX): reduced
nuclear c-MYC (c-MYC): may show reduced nuclear c-MYC
colony formation (A549 cells): Fewest colonies formed
percentage of live cells (H1299 cells): dose-dependent decrease in the percentage of live cells
